{"source": "patent US7943648B2", "about": "“Salts of imidazole-5-carboxylic acid derivatives, a method for preparing same and pharmaceutical compositions comprising same” (Shanghai Allist Pharmaceutical Inc., priority 2006, dated 2011)", "key": {"[1]": {"experiment": "SD rats drug absorption test", "method": "The intravenous blood was collected from venous plexus behind eyeballs of rats at different time before and after administration, and the blood plasma is prepared by separated.\nBlood samples are collected from an orbit at different time after the administration."}, "[2]": {"conditions": "solvent H2O; stirred strongly 30 seconds in each 5 minutes, observed within 30 minutes", "excerpt": "Each compound prepared above was weighted and added to solvents with different volume capacity."}}}
{"compound": "CCCCc1nc(Cl)c(C(=O)OCOC(=O)OC(C)C)n1Cc1ccc(-c2ccccc2-c2nnn[nH]2)cc1", "note": "[Compound 1, 2-butyl-4-chloro-1-[2′-(1H-tetrazol-5-yl)1,1′-biphenyl-methyl]imidazole-5-carboxylic acid, 1-[(isopropoxycarbonyl)oxy]methyl ester]", "values": [{"measurement": "Bioavailability", "setting": "[1]; intragastric infusion versus EXP3174 intravenous 7.9 mg/kg, based on plasma EXP3174, 7.9 mg/kg", "result": 4.11, "unit": "%"}, {"measurement": "Tmax", "setting": "[1]; intragastric infusion, same dosage as EXP3174 (7.9 mg/kg), active metabolite EXP3174 measured in blood plasma by LC-MS/MS", "result": 2, "unit": "h"}, {"measurement": "Solubility (in H2O)", "setting": "[2]", "result": "Slightly soluble (1 g of compound can be dissolved in 100 ml˜1000 ml solvent)"}]}
